Measured values published in patent publication US20260317325A1, “AMORPHOUS SUBSTANCE AND CRYSTAL OF DIOXOPIPERIDINE COMPOUND OR PHARMACEUTICALLY ACCEPTABLE SALT THEREOF, PREPARATION METHOD, AND USE” (JIANGSU HENGRUI PHARMACEUTICALS CO., LTD., priority 2023, published 2026).
Counter-ions that a name gives are not always drawn. Like-named read-outs stand apart in the source and are kept apart here.

Assays:
[1] = Procedure: Long-term/accelerated stability study: Samples of the free-state form were sealed in aluminum foil bags and left to stand under 25° C./60% RH and 40° C./75% RH conditions to study its stability.
Long-term/accelerated stability of salt forms: Samples were sealed in aluminum foil bags and left to stand under 25° C./60% RH and 40° C./75% RH conditions to study their stability.

Remark: listed apart in the source
[2] = high-temperature and high-humidity conditions
Procedure: Influencing factor stability study: Samples of the free-state form were taken, spread in open containers, and left to stand under high-temperature (40° C. and 60° C.) and high-humidity (RH 75% and RH 92.5%) conditions for 30 days to study its stability.
Influencing factor stability study of salt forms: Samples of the salt forms were taken, spread in open containers, and left to stand under high-temperature (40° C. and 60° C.) and high-humidity (RH 75%) conditions for 30 days to study their stability.

[3] = long-term accelerated conditions for 6 months

C[C@H]1CC2(CCN(c3ccc(C(=O)N4CCC(CN5CCN(c6cccc(N[C@H]7CCC(=O)NC7=O)c6)CC5)CC4)cc3F)CC2)CN1c1ccc(C#N)c(Cl)c1 [Amorphous form of maleate]
stability (in words) ([1]; long-term conditions for 6 months): good chemical and physical stability

C[C@H]1CC2(CCN(c3ccc(C(=O)N4CCC(CN5CCN(c6cccc(N[C@H]7CCC(=O)NC7=O)c6)CC5)CC4)cc3F)CC2)CN1c1ccc(C#N)c(Cl)c1 [Crystal form B of succinate]
stability (in words) [1, 3]: good chemical and physical stability

C[C@H]1CC2(CCN(c3ccc(C(=O)N4CCC(CN5CCN(c6cccc(N[C@H]7CCC(=O)NC7=O)c6)CC5)CC4)cc3F)CC2)CN1c1ccc(C#N)c(Cl)c1 [crystal form A of D-mandelate]
crystal form before and after DVS testing (XRPD): the crystal form did not change before and after DVS testing | desorption versus adsorption process (humidity 0% to 95% RH): the desorption process of the sample overlapped with its adsorption process | stability (in words) ([1]; long-term accelerated conditions for 6 months, listed as crystal form A of mandelate): good chemical and physical stability

C[C@H]1CC2(CCN(c3ccc(C(=O)N4CCC(CN5CCN(c6cccc(N[C@H]7CCC(=O)NC7=O)c6)CC5)CC4)cc3F)CC2)CN1c1ccc(C#N)c(Cl)c1 [free-state amorphous form]
stability (in words) [2]: good chemical stability | stability (in words) [1, 3]: good physical and chemical stability
